Where “and” joins values, the source holds several entries; their conditions need not be identical. Equal values may be shown once. Entries after “also recorded” stand apart in the source; their conditions may differ.
Columns and labels:
blood-platelets [1] = conditions: literature, fragments of cow's CGP; same concentrations as the undecapeptide; cited from earlier work
blood-platelets [2] = conditions: literature, fragments of cow's CGP; cited from earlier work
human blood-platelets [3] = assay: secretion reaction with thrombin (release of serotonin from the dense granule); format: cell-based
Description: (§1) More precisely, its activity upon the blood-platelet functions has been studied in vitro in relation to the inhibition of the aggregation of blood-platelets caused by ADP ("aggregation with ADP"), in relation to the inhibition of the attachment of fibrinogen to the blood-platelets caused by ADP ("attachment of fibrinogen with ADP"), in relation to the inhibition of the aggregation of blood-platelets caused by thrombin ("aggregation with thrombin") and in relation to the inhibition of the reaction caused by thrombin ("secretion reaction with thrombin") that is to say the release of one of the constituents of the dense granule (serotonin), evidence of blood-platelet activation.
(§2) These three products (κ-casein, κ-paracasein and CGP) have been tested upon the aggregation of human blood-platelets by ADP and by thrombin, upon the fixing of fibrinogen in the presence of ADP, and on the secretion reaction.

human blood-platelets [4] = assay: aggregation of human blood-platelets caused by thrombin; format: cell-based
Description: as §1, §2

human blood-platelets [5] = assay: aggregation of human blood-platelets caused by ADP; format: cell-based; set-up: key to Aggregation with ADP, concentration which induces 50% inhibition: --: No inhibition
Description: as §1, §2

human blood-platelets [6] = assay: attachment of fibrinogen to the blood-platelets caused by ADP; format: cell-based; conditions: CGP at 250 μM
Description: as §1, §2

## heptapeptide containing the residues 106→112: fragment 106→112 of cow's κ-caseinoglycopeptide, by trypsin digestion of CGP or by synthesis (MAIPPKK; UniProt P02668 127-133, looked up, fragment)
blood-platelets [1]
  inhibition of the attachment of fibrinogen to the blood-platelets in vitro: none of these peptides inhibit
blood-platelets [2]
  inhibition of blood-platelet aggregation in vitro: non-inhibiting

## tetrapeptide containing the residues 113→116: fragment 113→116 of cow's κ-caseinoglycopeptide, by trypsin digestion of CGP or by synthesis (NQDK; UniProt P02668 134-137, looked up, fragment)
blood-platelets [1]
  inhibition of the attachment of fibrinogen to the blood-platelets in vitro: none of these peptides inhibit
blood-platelets [2]
  inhibition of blood-platelet aggregation in vitro: inhibits only very slightly

## κ-casein: cow's milk protein that under chymosin yields κ-paracasein and CGP; comparator
Human blood-platelets [3]; Table II, read-out: Secretion reaction with thrombin, concentration which induces 50% inhibition
  IC50: 10 µM
Human blood-platelets [3]; read-out: CI50, secretion reaction with thrombin
  IC50: 10 µM and ~10 µM
Human blood-platelets [4]; Table II, read-out: Aggregation with thrombin, concentration which induces 50% inhibition
  IC50: 10 µM
Human blood-platelets [4]; read-out: CI50, aggregation with thrombin
  IC50: 10 µM and ~10 µM
Human blood-platelets [5]
  CI50, aggregation with ADP: inactive; also recorded: inhibits neither
Human blood-platelets [5]; Table II
  Aggregation with ADP, concentration which induces 50% inhibition: --
Human blood-platelets [6]
  inhibition of fibrinogen attachment with ADP: inhibits neither

— US5063203A, “Method of preventing or treating thrombosis using kappa-caseinoglycopeptide as active ingredient” (Centre National de la Recherche Scientifique (CNRS), priority 1989, dated 1991)
